What all share (assay): DTP human tumour cell line panel, 48 h
Experiment [1] relates to SNB-75 CNS.
The test system of experiment [2] is CCRF-CEM leukemia.
Experiment [3] concerns OVCAR-3 ovarian.
Experiment [4] concerns NCI/ADR-RES ovarian.
Experiment [5] deals with MDA-N.
Experiment [6] concerns A498 renal.
The test system of experiment [7] is MOLT-4 leukemia.
For experiment [8], the system named is UO-31 renal.
Experiment [9] has as its system NCI-H522 lung.
The subject of experiment [10] is RPMI-8226 leukemia.
Experiment [11] concerns SK-OV-3 ovarian.

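Where inhibition never reached the appropriate level, the endpoint shown equals the highest concentration tested. Otherwise, values were interpolated linearly from a five-concentration, 48-hour dose response in 96-well plates. TGI: total growth inhibition.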

Consider `CCN1/C(=C/c2ccc3ccccc3[n+]2CC)C=Cc2ccccc21`, for which the total growth inhibition concentration (TGI) (usually the concentration giving total growth inhibition) was 2.27 µM in experiment [1]; 6.81 µM in experiment [2]; 13.1 µM in [3]; 88.9 µM in experiment [4]; 2.04 µM in [5]; 15 µM in experiment [6]. Also, the TGI in experiment [7] is greater than 33.9 µM; in experiment [8], 8.45 µM; in experiment [9], 4.64 µM; in experiment [10] it was greater than 23.4 µM.
With `Cc1ccc(/C=C2\NC(=S)N(CN3CCOCC3)C2=O)cc1`, the TGI in [1], in experiment [2], in experiment [3], in [11], in experiment [4] and in experiment [5] was greater than 100 µM in each case. In addition, the TGI in experiment [6], in experiment [7], in experiment [8] and in experiment [10] was greater than 100 µM throughout.
Consider `O=S(=O)(O)CCS`, for which the TGI in experiment [1], in [2], in experiment [3], in [11], in experiment [4] and in [5] was greater than 100 µM in each case. The concentration for total growth inhibition (TGI) in [6], in experiment [7], in [8] and in experiment [9] was greater than 100 µM each time.
Regarding `OCCCSc1ccccc1SCCCO`, the TGI in experiment [1], in [2], in experiment [3], in [11], in experiment [4] and in [5] was greater than 100 µM throughout. The TGI in experiment [7], in [8] and in experiment [9] was greater than 100 µM throughout.
In the case of `O=c1nc2n(cc1/C=C\Br)C1CC(O)C(CO2)O1` (stereo unspecified), the TGI in experiment [1], in experiment [2], in experiment [3], in experiment [11], in [4] and in [5] was greater than 100 µM in each case. Also, the TGI in experiment [6], in experiment [7], in [8] and in [10] was greater than 100 µM in each case.
Regarding `CCOC(=O)c1c(C)n(Cc2ccccc2)c2c1cc(O)c1[nH]c3c(c12)CCCC3`, the TGI amounted to 7.4 µM in experiment [2]; 6.2 µM in [3]; 24.5 µM in [11]; 18.5 µM in experiment [4]; 28.2 µM in experiment [5]; 12.6 µM in experiment [7]. Also, the TGI in experiment [8] came out at 6.43 µM; in [9], 2.58 µM; in [10], 4.97 µM.
As for `CCOC(OCC)C(CC)[Se]c1ccccc1[N+](=O)[O-]` (stereo unspecified), the TGI was greater than 100 µM in experiment [1]; greater than 62.5 µM in experiment [2]; 6.56 µM in experiment [3]; 9.44 µM in [11]; greater than 100 µM in [5]; 11.6 µM in experiment [6]. Besides, the TGI in experiment [7] was greater than 86.7 µM; in experiment [8], greater than 100 µM; in experiment [9], 4.45 µM; in experiment [10], 23 µM.
With `N[C@@H]1c2c(Br)sc(Br)c2[C@H](O)[C@@H]1O`, the TGI in [1], in [2], in [3], in experiment [11], in [4] and in [5] was greater than 100 µM each time. Besides, the TGI in experiment [6], in experiment [7], in experiment [8] and in experiment [9] was greater than 100 µM throughout.
Regarding `O=C1CN(c2ccc(Cl)cc2)C(=O)CN1CCN1CC(=O)N(c2ccc(Cl)cc2)CC1=O`, the TGI in [1], in experiment [2], in [3], in experiment [11], in [5] and in [6] was greater than 100 µM each time. The TGI in experiment [7], in experiment [8], in [9] and in [10] was greater than 100 µM in each case.
On to `CC(C)(C)NC(NC(C)(C)C)=C(C(Cl)=C(Cl)Cl)[N+](=O)[O-]`, for which the TGI in [1], in experiment [2], in experiment [3], in [11], in [4] and in [5] was greater than 100 µM each time. Also, the TGI in experiment [6], in experiment [7], in experiment [8] and in experiment [10] was greater than 100 µM in each case.
As for `Oc1ccc2c(c1)OCC(O)(c1ccccc1O)C2` (stereo unspecified), the TGI in [1], in experiment [2], in [3], in experiment [11], in experiment [4] and in [5] was greater than 100 µM in each case. Besides, the TGI in experiment [6], in [7], in experiment [8] and in experiment [10] was greater than 100 µM each time.
For `Cn1c(-c2csc(-c3ccc(Cl)cc3)n2)n[nH]c1=S`, the TGI in [1] is 39.8 µM; in experiment [2] it was greater than 100 µM; in experiment [3], 34.9 µM; in [11], 32 µM; in [4] it was greater than 100 µM; in experiment [5] it was greater than 100 µM. Besides, the figures for the TGI in experiment [7], in experiment [8] and in [9] were greater than 100 µM, 44.9 µM and 41 µM, respectively.
Regarding `CCCn1cnc2c(NN=O)ncnc21`, the total growth inhibition concentration (TGI) in experiment [1], in experiment [3], in experiment [4], in experiment [5], in experiment [6] and in experiment [7] was greater than 100 µM throughout. Further, the TGI in [8], in [9] and in experiment [10] was greater than 100 µM in each case.

For the origin of these results see PubChem BioAssay (NCI).
